Values joined by “and” are separate entries in the source; they are usually repeats but may differ in a detail not shown here. Equal values may be shown once. Records with an inconclusive call do not appear.

The text below walks through data of PubChem BioAssay AID296 (DTP/NCI, 2004).

The assay relates to MX-1 breast xenograft, nude mice, tumor weight T/C. Kind of assay: NCI In Vivo Anticancer Drug Screen. Data for tumor model Human Mammary Carcinoma MX-1 Xenograft (intrarenal inoculation) in NU/NU Swiss (nude) mice. As to conditions: endpoint: mean tumor weight change, higher = larger tumour. In a few lines:
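Compound dosed to mice with transplantable tumor; vehicle group as control. Endpoint survival or tumour size, reported as T/C.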
(In general: A xenograft is tissue or cells of one species grown in another, often human tumour cells in immunodeficient mice.)

Setting [1] is: dose: 300.0 mg/kg/injection, schedule: Q04DX003 (sc), vehicle: saline with Tween-80.
Setting [2] is: dose: 600.0 mg/kg/injection, schedule: Q04DX003 (sc), vehicle: saline with Tween-80.
Setting [3] is: dose: 1200.0 mg/kg/injection, schedule: Q04DX003 (sc), vehicle: saline with Tween-80.
[4] abbreviates: dose: 2400.0 mg/kg/injection, schedule: Q04DX003 (sc), vehicle: saline with Tween-80.
Setting [5] is: dose: 50.0 mg/kg/injection, schedule: Q04DX003 (sc), vehicle: Klucel (hydroxypropylcellulose) (HPC).
The mark [6] stands for this setting: dose: 100.0 mg/kg/injection, schedule: Q04DX003 (sc), vehicle: Klucel (hydroxypropylcellulose) (HPC).
[7] abbreviates: dose: 300.0 mg/kg/injection, schedule: Q04DX003 (sc), vehicle: saline.
The mark [8] stands for this setting: dose: 600.0 mg/kg/injection, schedule: Q04DX003 (sc), vehicle: saline.
Setting [9] is: dose: 1200.0 mg/kg/injection, schedule: Q04DX003 (sc), vehicle: saline.
Where [10] appears, read: dose: 300.0 mg/kg/injection, schedule: Q04DX003 (sc), vehicle: Klucel (hydroxypropylcellulose) (HPC).
[11] abbreviates: dose: 600.0 mg/kg/injection, schedule: Q04DX003 (sc), vehicle: Klucel (hydroxypropylcellulose) (HPC).

As for `O=C1CN(CN2CCOCC2)C(=O)CN1CN1CCOCC1`, the T/C is, setting by setting: (dose: 25.0 mg/kg/injection, schedule: Q01DX010 (sc), vehicle: suspension in saline) 117 % of control; (dose: 50.0 mg/kg/injection, schedule: Q01DX010 (sc), vehicle: suspension in saline) 119 % of control; (dose: 100.0 mg/kg/injection, schedule: Q01DX010 (sc), vehicle: suspension in saline) 161 % of control; (dose: 200.0 mg/kg/injection, schedule: Q01DX010 (sc), vehicle: suspension in saline) 87 % of control.
With `O=C1N=C(Oc2ccccc2)SC1=O`, where the note is “dose: 400.0 mg/kg/injection, schedule: Q04DX003 (sc), vehicle: saline with Tween-80”, the T/C was 67 % of control.
As for `CC1(C)CC2(C)OC2C2(C1)N=NC(=Nc1ccccc1)O2` (stereo not drawn), the T/C under setting [1] was 79 % of control, the T/C under setting [2] is 81 % of control, the T/C under setting [3] is 88 % of control and the T/C under setting [4] is 81 % of control.
With `O=C(O)/C=C/C(=O)Nc1ccc(Cl)c(Cl)c1`, the T/C is, setting by setting: under setting [5], 111 % of control; under setting [6], 91 % of control; (dose: 400.0 mg/kg/injection, schedule: Q04DX003 (sc), vehicle: Klucel (hydroxypropylcellulose) (HPC)) 120 % of control.
As to `O=C(Nc1cccc2c(OC(=O)C(Cl)Cl)c(N=Nc3ccc(S(=O)(=O)Nc4nccs4)cc3)cc(N=Nc3ccc(S(=O)(=O)Nc4nccs4)cc3)c12)C(Cl)Cl` (tested in a mixture with another compound), the T/C reads like this: under setting [1], 111 % of control; under setting [2], 103 % of control; under setting [3], 109 % of control; under setting [4], 109 % of control.
With `CCCCCCOC(CN(C)C)C(Cl)(Cl)Cl` (stereo not drawn), the T/C was 70 % of control under setting [1], 69 % of control under setting [2], 71 % of control under setting [3] and 58 % of control under setting [4].
As to `C1CC[N-]CC1.[Cl][Pt+2][Cl].[NH-]C1CC1`, the T/C is, setting by setting: (dose: 25.0 mg/kg/injection, schedule: Q04DX003 (sc), vehicle: water) 60 % of control; under setting [5], 34 % of control and 55 % of control; (dose: 50.0 mg/kg/injection, schedule: Q04DX003 (sc), vehicle: water) 11 % of control; (dose: 100.0 mg/kg/injection, schedule: Q04DX003 (sc), vehicle: water) -83 % of control.
As to `CCOC(=O)NC1=C(N2CC2)C(=O)C(NC(=O)OCC)=C(N2CC2)C1=O`, the T/C was 1 % of control (dose: 1.56 mg/kg/injection, schedule: Q01DX010 (sc), vehicle: saline); 3 % of control (dose: 3.13 mg/kg/injection, schedule: Q01DX010 (sc), vehicle: saline); 41 % of control (dose: 3.13 mg/kg/injection, schedule: Q04DX003 (ip), vehicle: suspension in saline); -44 % of control (dose: 6.25 mg/kg/injection, schedule: Q04DX003 (ip), vehicle: suspension in saline); -100 % of control (dose: 12.5 mg/kg/injection, schedule: Q04DX003 (ip), vehicle: suspension in saline).
For the compound `O=NN(CCCl)C(=O)NCCCl`, the T/C by setting is: (dose: 2.0 mg/kg/injection, schedule: Q01DX010 (sc), vehicle: saline) 74 % of control; (dose: 4.0 mg/kg/injection, schedule: Q01DX010 (sc), vehicle: saline) 76 % of control; (dose: 4.0 mg/kg/injection, schedule: Q01DX010 (sc), vehicle: suspension in saline) 80 % of control; (dose: 7.5 mg/kg/injection, schedule: Q04DX003 (sc), vehicle: suspension in saline) 80 % of control; (dose: 8.0 mg/kg/injection, schedule: Q01DX010 (sc), vehicle: saline) 56 % of control; (dose: 8.0 mg/kg/injection, schedule: Q01DX010 (sc), vehicle: suspension in saline) 44 % of control. Besides, the T/C is 37 % of control and 52 % of control (dose: 15.0 mg/kg/injection, schedule: Q04DX003 (sc), vehicle: suspension in saline); 2 % of control (dose: 16.0 mg/kg/injection, schedule: Q01DX010 (sc), vehicle: suspension in saline); 2 % of control (dose: 32.0 mg/kg/injection, schedule: Q01DX010 (sc), vehicle: saline).
Turning to `NCCc1cc(O)c(O)c(O)c1`, the T/C was 59 % of control (dose: 100.0 mg/kg/injection, schedule: Q04DX003 (sc), vehicle: saline); 150 % of control (dose: 200.0 mg/kg/injection, schedule: Q04DX003 (sc), vehicle: saline); 154 % of control (dose: 400.0 mg/kg/injection, schedule: Q04DX003 (sc), vehicle: saline); 72 % of control (dose: 800.0 mg/kg/injection, schedule: Q04DX003 (sc), vehicle: saline).
Regarding `Nc1cc2c3c(cccc3c1)C(=O)N(CCN1CCCC1)C2=O`, the T/C is, setting by setting: (dose: 25.0 mg/kg/injection, schedule: Q04DX003 (sc), vehicle: saline with Tween-80) 60 % of control; (dose: 50.0 mg/kg/injection, schedule: Q04DX003 (sc), vehicle: saline with Tween-80) 60 % of control; (dose: 100.0 mg/kg/injection, schedule: Q04DX003 (sc), vehicle: saline with Tween-80) 120 % of control; (dose: 200.0 mg/kg/injection, schedule: Q04DX003 (sc), vehicle: saline with Tween-80) 119 % of control.
In the case of `COc1c(C=O)c2c(c(OC)c1OC)-c1ccc(OC)c(=O)cc1[C@@H](NC(C)=O)CC2`, the T/C is 20 % of control (dose: 18.75 mg/kg/injection, schedule: Q04DX003 (sc), vehicle: Klucel (hydroxypropylcellulose) (HPC)) and 11 % of control (dose: 37.5 mg/kg/injection, schedule: Q04DX003 (sc), vehicle: Klucel (hydroxypropylcellulose) (HPC)).
For `Cc1ccccc1CN1C2=NCCN2C(=O)C2=C1CCN(S(=O)(=O)c1ccc(Cl)c(S(N)(=O)=O)c1)C2`, the T/C reads like this: under setting [7], 59 % of control; under setting [8], 122 % of control; under setting [9], 109 % of control.
For the compound `COc1ccc([I+]c2cccc(Cl)c2)cc1Cl`, the T/C runs as follows: (dose: 150.0 mg/kg/injection, schedule: Q04DX003 (sc), vehicle: saline with Tween-80) 114 % of control; under setting [1], 100 % of control; under setting [2], 84 % of control; under setting [3], 41 % of control.
For `COC(=O)C(N)Cc1ccc(O)c(O)c1` (stereo not drawn), the T/C reads like this: under setting [7], 106 % of control; under setting [8], 101 % of control; under setting [9], 105 % of control.
For `CN(C)c1ccc2c(SCC(=O)OCC(=O)[C@@]3(O)CC[C@H]4[C@@H]5CCC6=CC(=O)C=C[C@]6(C)[C@H]5C(=O)C[C@@]43C)c3ccc(N(C)C)cc3nc2c1`, the T/C (dose: 75.0 mg/kg/injection, schedule: Q04DX003 (sc), vehicle: Klucel (hydroxypropylcellulose) (HPC)) is 53 % of control; the T/C (dose: 150.0 mg/kg/injection, schedule: Q04DX003 (sc), vehicle: Klucel (hydroxypropylcellulose) (HPC)) was 92 % of control; the T/C under setting [10] is 39 % of control; the T/C under setting [11] was 55 % of control.
Take `COc1ccc2c(c1)CCC(c1ccccc1)=C2c1ccc(OCCN2CCCC2)cc1`: the T/C was 79 % of control (dose: 25.0 mg/kg/injection, schedule: Q04DX003 (sc), vehicle: Klucel (hydroxypropylcellulose) (HPC)); 72 % of control under setting [5]; 70 % of control under setting [6]; 67 % of control (dose: 200.0 mg/kg/injection, schedule: Q04DX003 (sc), vehicle: Klucel (hydroxypropylcellulose) (HPC)).
For the compound `COc1ccc2c(c1[N+](=O)[O-])CC[C@@H]1[C@@H]2CC[C@]2(C)C(=O)CC[C@@H]12`, the T/C is, setting by setting: (dose: 150.0 mg/kg/injection, schedule: Q04DX003 (ip), vehicle: saline with Tween-80) 90 % of control; (dose: 300.0 mg/kg/injection, schedule: Q04DX003 (ip), vehicle: saline with Tween-80) 111 % of control; (dose: 1200.0 mg/kg/injection, schedule: Q04DX003 (ip), vehicle: saline with Tween-80) 102 % of control.
In the case of `Cc1ccc(C(=O)[O][Hg][CH2]C2COC([CH2][Hg][O]C(=O)c3ccc(C)cc3)CO2)cc1` (stereo not drawn), the T/C under setting [10] is 109 % of control; the T/C under setting [11] is 106 % of control; the T/C (dose: 1200.0 mg/kg/injection, schedule: Q04DX003 (sc), vehicle: Klucel (hydroxypropylcellulose) (HPC)) was 72 % of control; the T/C (dose: 2400.0 mg/kg/injection, schedule: Q04DX003 (sc), vehicle: Klucel (hydroxypropylcellulose) (HPC)) was 102 % of control.
